Counter-ions that a name gives are not always drawn.
Biological target: hSTING(R232) (Homo sapiens, UniProt Q86WV6, H232R)
Assay: Luciferase reporter assay in HEK293T-hSTING-Luciferase cells, R232 (wild type) human STING
Type: cell-based
Conditions: 20 hr stimulation, read-out: R232 human activity (EC50 range)
Outline: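 Clonal HEK293T cells stably expressing STING from a pUNO-1 plasmid plus an ISRE/ISG54-driven secreted luciferase reporter; 5×10^5 cells stimulated with compound for 20 hr. Supernatant luciferase read by luminescence, giving fold-induction over baseline and EC50.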

Chain of hSTING(R232) (Q86WV6 whole entry H232R): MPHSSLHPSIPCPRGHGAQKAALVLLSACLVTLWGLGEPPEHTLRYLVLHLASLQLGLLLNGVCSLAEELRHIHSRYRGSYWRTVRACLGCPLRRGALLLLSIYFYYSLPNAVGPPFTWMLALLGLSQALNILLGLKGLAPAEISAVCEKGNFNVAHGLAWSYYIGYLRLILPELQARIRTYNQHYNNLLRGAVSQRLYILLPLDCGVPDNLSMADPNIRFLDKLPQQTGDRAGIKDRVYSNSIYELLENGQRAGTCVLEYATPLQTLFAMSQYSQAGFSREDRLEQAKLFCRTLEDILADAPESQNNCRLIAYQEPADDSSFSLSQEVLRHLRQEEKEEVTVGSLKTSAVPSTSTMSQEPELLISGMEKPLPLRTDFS

Row | Structure (SMILES) | EC50 [µM]
1 | CC1c2ccc(C(=O)NCc3c(F)cc(F)cc3F)cc2N(Cc2cc(F)cc(F)c2)C(=O)N1C (stereo not shown) [Example 152, 1-(3,5-difluorobenzyl)-3,4-dimethyl-2-oxo-N-(2,4,6-trifluorobenzyl)-1,2,3,4-tetrahydroquinazoline-7-carboxamide] | < 1
2 | CC1c2ccc(C(=O)NCc3c(F)cc(F)cc3F)cc2N(Cc2c(F)cccc2F)C(=O)N1C (stereo not shown) [Example 195, 1-(2,6-difluorobenzyl)-3,4-dimethyl-2-oxo-N-(2,4,6-trifluorobenzyl)-1,2,3,4-tetrahydroquinazoline-7-carboxamide] | < 1
3 | C[C@H]1c2ccc(C(=O)N(CCO)Cc3c(F)cc(F)cc3F)cc2N(Cc2c(F)cccc2Cl)C(=O)N1C [Example 151, (S)-1-(2-Chloro-6-fluorobenzyl)-N-(2-hydroxyethyl)-3,4-dimethyl-2-oxo-N-(2,4,6-trifluorobenzyl)-1,2,3,4-tetrahydroquinazoline-7-carboxamide] | > 10
4 | Cc1cc(CN2C(=O)N(C)C(C)c3ccc(C(=O)NCc4c(F)cc(F)cc4F)cc32)ccn1 (stereo not shown) [Example 198, 3,4-dimethyl-1-((2-methylpyridin-4-yl)methyl)-2-oxo-N-(2,4,6-trifluorobenzyl)-1,2,3,4-tetrahydroquinazoline-7-carboxamide] | < 1
5 | CC1c2ccc(C(=O)NCc3c(F)cc(F)cc3F)cc2N(Cc2ccc(OCC(=O)O)cc2F)C(=O)N1C (stereo not shown) [Example 228, 2-(4-((3,4-dimethyl-2-oxo-7-((2,4,6-trifluorobenzyl)carbamoyl)-3,4-dihydroquinazolin-1(2H)-yl)methyl)-3-fluorophenoxy)acetic acid] | > 10
6 | CN1Cc2ccc(C(=O)NCc3cccc(-c4ccn(C)n4)c3)cc2N(Cc2c(F)cccc2Cl)C1=O [Example 28, 1-(2-chloro-6-fluorobenzyl)-3-methyl-N-(3-(1-methyl-1H-pyrazol-3-yl)benzyl)-2-oxo-1,2,3,4-tetrahydroquinazoline-7-carboxamide] | > 10
7 | CN1Cc2ccc(C(=O)NCc3c(F)cc(F)cc3F)cc2N(Cc2ccc(F)cc2)C1=O [Example 6, 1-(4-fluorobenzyl)-3-methyl-2-oxo-N-(2,4,6-trifluorobenzyl)-1,2,3,4-tetrahydroquinazoline-7-carboxamide] | < 1
8 | C[C@H]1c2ccc(C(=O)NCc3c(F)cc(F)cc3F)cc2N(Cc2c(F)cccc2NC(=O)CN)C(=O)N1C [Example 272, (S)-1-(2-(2-aminoacetamido)-6-fluorobenzyl)-3,4-dimethyl-2-oxo-N-(2,4,6-trifluorobenzyl)-1,2,3,4-tetrahydroquinazoline-7-carboxamide dihydrochloride] | 1 to 10
9 | CN1Cc2ccc(C(=O)NCc3c(F)cc(F)cc3F)cc2N(Cc2ccnn2C)C1=O [Example 53, 3-methyl-1-((1-methyl-1H-pyrazol-5-yl)methyl)-2-oxo-N-(2,4,6-trifluorobenzyl)-1,2,3,4-tetrahydroquinazoline-7-carboxamide] | > 10
10 | C[C@H]1c2ccc(C(=O)NCc3c(F)cc(F)cc3F)cc2N(Cc2c(Cl)c[nH]c(=O)c2F)C(=O)N1C [Example 287, (S)-1-((5-chloro-3-fluoro-2-oxo-1,2-dihydropyridin-4-yl)methyl)-3,4-dimethyl-2-oxo-N-(2,4,6-trifluorobenzyl)-1,2,3,4-tetrahydroquinazoline-7-carboxamide] | > 10
11 | COc1cccc(CN2C(=O)N(C)Cc3ccc(C(=O)NCc4c(F)cc(F)cc4F)cc32)c1F [Example 63, 1-(2-fluoro-3-methoxybenzyl)-3-methyl-2-oxo-N-(2,4,6-trifluorobenzyl)-1,2,3,4-tetrahydroquinazoline-7-carboxamide] | 1 to 10
12 | COc1cccc(F)c1CN1C(=O)N(C)C(C)c2ccc(C(=O)NCc3c(F)cc(F)cc3F)cc21 (stereo not shown) [Example 155, 1-(2-fluoro-6-methoxybenzyl)-3,4-dimethyl-2-oxo-N-(2,4,6-trifluorobenzyl)-1,2,3,4-tetrahydroquinazoline-7-carboxamide] | 1 to 10
13 | CN1Cc2ncc(C(=O)NCc3cc4ccccc4o3)cc2N(Cc2c(F)cccc2Cl)C1=O [Example 73, N-(benzofuran-2-ylmethyl)-1-(2-chloro-6-fluorobenzyl)-3-methyl-2-oxo-1,2,3,4-tetrahydropyrido[3,2-d]pyrimidine-7-carboxamide] | > 10
14 | C[C@H]1c2ccc(C(=O)NCc3c(F)cc(O)cc3F)cc2N(Cc2c(F)cc(O)cc2F)C(=O)N1C [Example 150, (S)—N,1-bis(2,6-Difluoro-4-hydroxybenzyl)-3,4-dimethyl-2-oxo-1,2,3,4-tetrahydroquinazoline-7-carboxamide] | < 1
15 | COc1cc(F)ccc1CNC(=O)c1ccc2c(c1)N(Cc1c(F)cccc1Cl)C(=O)N(C)C2 [Example 61, 1-(2-chloro-6-fluorobenzyl)-N-(4-flnoro-2-methoxybenzyl)-3-methyl-2-oxo-1,2,3,4-tetrahydroquinazoline-7-carboxamide] | > 10
16 | Cc1nc(CN2C(=O)N(C)Cc3ccc(C(=O)NCc4c(F)cc(F)cc4F)cc32)co1 [Example 36, 3-methyl-1-((2-methyloxazol-4-yl)methyl)-2-oxo-N-(2,4,6-trifluorobenzyl)-l,2,3,4-tetrahydroquinazoline-7-carboxamide] | > 10
17 | CC1c2ccc(C(=O)NCc3c(F)cc(F)cc3F)cc2N(Cc2ccc(Cl)cc2F)C(=O)N1C (stereo not shown) [Example 219, 1-(4-chloro-2-fluorobenzyl)-3,4-dimethyl-2-oxo-N-(2,4,6-trifluorobenzyl)-1,2,3,4-tetrahydroquinazoline-7-carboxamide] | < 1
18 | CN1Cc2ccc(C(=O)NCc3c(F)cc(F)cc3F)cc2N(Cc2cn3cc(F)ccc3n2)C1=O [Example 45, 1-((6-fluoroimidazo[1,2-a]pyridin-2-yl)methyl)-3-methyl-2-oxo-N-(2,4,6-trifluorobenzyl)-l,2,3,4-tetrahydroquinazoline-7-carboxamide] | > 10
19 | Cc1cccc(F)c1CN1C(=O)N(C)C(C)c2ccc(C(=O)NCc3c(F)cc(F)cc3F)cc21 (stereo not shown) [Example 161, 1-(2-fluoro-6-methylbenzyl)-3,4-dimethyl-2-oxo-N-(2,4,6-trifluorobenzyl)-1,2,3,4-tetrahydroquinazoline-7-carboxamide] | 1 to 10
20 | CC1c2ccc(C(=O)NCc3c(F)cc(F)cc3F)cc2N(Cc2ccc(OCCO)cc2F)C(=O)N1C (stereo not shown) [Example 230, 1-(2-fluoro-4-(2-hydroxyethoxy)benzyl)-3,4-dimethyl-2-oxo-N-(2,4,6-trifluorobenzyl)-1,2,3,4-tetrahydroquinazoline-7-carboxamide] | < 1
21 | CN1Cc2ccc(C(=O)NCc3cc4cc([N+](=O)[O-])ccc4o3)cc2N(Cc2c(F)cccc2Cl)C1=O [Example 48, 1-(2-chloro-6-fluorobenzyl)-3-methyl-N-((5-nitrobenzofuran-2-yl)methyl)-2-oxo-1,2,3,4-tetrahydroquinazoline-7-carboxamide] | > 10
22 | C[C@H]1c2ccc(C(=O)NCc3c(F)cc(F)cc3F)cc2N(Cc2c(F)cc(OCC(=O)O)cc2F)C(=O)N1C [Example 277, (S)-2-(4-((3,4-dimethyl-2-oxo-7-((2,4,6-trifluorobenzyl)carbamoyl)-3,4-dihydroquinazolin-1(2H)-yl)methyl)-3,5-difluorophenoxy)acetic acid] | > 10

— patent US11571423B2, “Small molecule modulators of human sting” (Curadev Pharma Limited, priority 2017, dated 2023)
